Test results from patent publication US20170274014A1, “COMBINATIONS OF LOW, IMMUNE ENHANCING, DOSES OF MTOR INHIBITORS AND CARS” (Novartis AG, priority 2014, published 2017).
Several values for one entry are separate records, joined by “and”; a condition that tells them apart may be missing. Equal values may be shown once. Read-outs that look alike come from different tables or passages of the source.

How the values were obtained:
[1] = test system: humanized CD19 CART cells; settings: RAD001 0.003 mg/kg daily with huCTL019; compared with normal level of huCAR19 proliferation
[2] = test system: H1N1 A/California/07/2009; test: Hemagglutination inhibition titers after seasonal influenza vaccination, A/H1N1 vaccine strain; format: in vivo, human; settings: for HI GMT A/H1N1, Baseline: 2 weeks prior to influenza vaccination; for HI GMT A/H1N1, Week 4: 4 weeks after influenza vaccination
Experimental: (§1) The trial was observer-blind because the placebo in the RAD001 0.5 mg daily and 20 mg weekly cohorts differed slightly from the RAD001 tablets in those cohorts. […] The treatment duration for all cohorts was 6 weeks during which time subjects underwent safety evaluations in the clinic every 2 weeks. After subjects had been dosed for 4 weeks, RAD001 steady state levels were measured pre-dose and at one hour post dose. After completing the 6 week course of study drug, subjects were given a 2 week drug free break to reverse any possible RAD001-induced immunosuppression, and then were given a 2012 seasonal influenza vaccination (Agrippal®, Novartis Vaccines and Diagnostics, Siena, Italy) containing the strains H1N1 A/California/07/2009, H3N2 A/Victoria/210/2009, B/Brisbane/60/2008. Four weeks after influenza vaccination, subjects had serum collected for influenza titer measurements. Antibody titers to the 3 influenza vaccine strains as well as to 2 heterologous strains (A/H1N1 strain A/New Jersey/8/76 and A/H3N2 strain A/Victoria/361/11) were measured by standard hemagglutination inhibition assay (Kendal, A P et al. (1982) Concepts and procedures for laboratory-based influenza surveillance. Atlanta: Centers for Disease Control and Prevention B17-B35). Levels of IgG and IgM specific for the A/H1N1/California/07/2009 were measured in serum samples taken before and 4 weeks after influenza vaccination as described previously (Spensieri, F. et al. (2013) Proc. Natl. Acad. Sci. USA 110:14330-14335). Results were expressed as fluorescence intensity.
(§2) The primary analysis of geometric mean titer ratios was done using a normal Bayesian regression model with non-informative priors. This model was fitted to each antibody titer on the log scale. The primary outcome in each model was the Day 84 measurement. The Day 63 measurement was included in the outcome vector. The model fitted using SAS 9.2 proc mixed with the prior statement. The covariance structure of the matrix was considered as unstructured (option type=UN). A flat prior was used. For the secondary analysis of seroconversion rates, logistic regression was used.
(§3) The ability of RAD001 to improve immune function in elderly volunteers was evaluated by measuring the serologic response to the 2012 seasonal influenza vaccine. The hemagglutination inhibition (HI) geometric mean titers (GMT) to each of the 3 influenza vaccine strains at baseline and 4 weeks after influenza vaccination are provided in Table 6. The primary analysis variable was the HI GMT ratio (4 weeks post vaccination/baseline).
(§4) Rates of seroconversion 4 weeks after influenza vaccination were also evaluated. Seroconversion was defined as the change from a negative pre-vaccination titer (i.e., HI titer <1:10) to post-vaccination HI titer ≧1:40 or at least 4-fold increase from a non-negative (≧1:10) pre-vaccination HI titer.

[3] = test system: PD-1-positive CD4, CD8 and PD-1-negative CD4 T cells; set-up: species or system human; settings: in vivo
[4] = elderly subjects
[5] = test system: heterologous influenza strains (A/H1N1 strain A/New Jersey/8/76 and A/H3N2 strain A/Victoria/361/11); set-up: species or system human; settings: in vivo
[6] = test system: 3 influenza vaccine strains; set-up: species or system human; settings: in vivo
[7] = test system: B/Brisbane/60/2008; test: Hemagglutination inhibition titers after seasonal influenza vaccination, B vaccine strain; format: in vivo, human; settings: for HI GMT B, Baseline: 2 weeks prior to influenza vaccination; for HI GMT B, Week 4: 4 weeks after influenza vaccination
Experimental: as §1, §2, §3, §4

[8] = human, in vivo
[9] = test system: H3N2 A/Victoria/210/2009; test: Hemagglutination inhibition titers after seasonal influenza vaccination, A/H3N2 vaccine strain; format: in vivo, human; settings: for HI GMT A/H3N2, Baseline: 2 weeks prior to influenza vaccination; for HI GMT A/H3N2, Week 4: 4 weeks after influenza vaccination
Experimental: as §1, §2, §3, §4

[10] = PK analysis of RAD001 in blood of tumor bearing NSG mice; format: in vivo; settings: for concentration at 24 h: mouse, whole blood
Experimental: RAD001 dosing: A concentrated micro-emulsion of 50 mg equal to 1 mg RAD001 was formulated and then resuspended in D5W (dextrose 5% in water) at the time of dosing. Mice were orally dosed daily (via oral gavage) with 200 μl of the desired doses of RAD001.
PK analysis: Mice were dosed daily with RAD001 starting 7 days post tumor implantation. Dosing groups were as follows: 0.3 mg/kg, 1 mg/kg, 3 mg/kg, and 10 mg/kg. Mice were bled on days 0 and 14 following the first and last dose of RAD001, at the following time points for PK analysis: 15 minutes, 30 minutes, 1 hour, 2 hours, 4 hours, 8 hours, 12 hours, and 24 hours.

[11] = Intention to Treat Population, 0.5 mg, N = 48
[12] = Intention to Treat Population, 5 mg, N = 49
[13] = Intention to Treat Population, 20 mg, N = 48
[14] = Subjects with Baseline Titers <=40, 0.5 mg
[15] = Subjects with Baseline Titers <=40, 5 mg
[16] = Subjects with Baseline Titers <=40, 20 mg

Compound: CO[C@H]1C[C@@H]2CC[C@@H](C)[C@@](O)(O2)C(=O)C(=O)N2CCCC[C@H]2C(=O)O[C@H]([C@H](C)C[C@@H]2CC[C@@H](OCCO)[C@H](OC)C2)CC(=O)[C@H](C)/C=C(\C)[C@@H](O)[C@@H](OC)C(=O)[C@H](C)C[C@H](C)/C=C/C=C/C=C/1C [RAD001, (1R,9S,12S,15R,16E,18R,19R,21R,23S,24E,26E,28E,30S,32S,35R)-1,18-dihydroxy-12-{(1R)-2-[(1S,3R,4R)-4-(2-hydroxyethoxy)-3-methoxycyclohexyl]-1-methylethyl}-19,30-dimethoxy-15,17,21,23,29,35-hexamethyl-11,36-dioxa-4-aza-tricyclo[30.3.1.04,9]hexatriaconta-16,24,26,28-tetraene-2,3,10,14,20-pentaone]
- CAR T cell proliferation in vivo (CD4+ and CD8+ CAR T cells) [1]: enhancement in CAR T cell proliferation
- HI GMT ratio A/H1N1 (week 4 post vaccination/baseline) ([2]; 0.5 mg daily, N = 50): 2.6
- HI GMT A/H1N1, Baseline ([2]; 0.5 mg daily, N = 50): 102.8
- HI GMT A/H1N1, Week 4 ([2]; 0.5 mg daily, N = 50): 190.2
- HI GMT ratio A/H1N1 (week 4 post vaccination/baseline) ([2]; 5 mg weekly, N = 49): 2.5
- HI GMT A/H1N1, Baseline ([2]; 5 mg weekly, N = 49): 84.2
- HI GMT A/H1N1, Week 4 ([2]; 5 mg weekly, N = 49): 198.73
- HI GMT ratio A/H1N1 (week 4 post vaccination/baseline) ([2]; 20 mg weekly, N = 49): 1.8
- HI GMT A/H1N1, Baseline ([2]; 20 mg weekly, N = 49): 90.1
- HI GMT A/H1N1, Week 4 ([2]; 20 mg weekly, N = 49): 129.7
- Percent of subjects with seroconversion to influenza H1N1 4 weeks after vaccination [2, 11]: 27%
- Percent of subjects with seroconversion to influenza H1N1 4 weeks after vaccination [2, 12]: 27%
- Percent of subjects with seroconversion to influenza H1N1 4 weeks after vaccination [2, 13]: 17%
- Percent of subjects with seroconversion to influenza H1N1 4 weeks after vaccination [2, 14]: 42%
- Percent of subjects with seroconversion to influenza H1N1 4 weeks after vaccination [2, 15]: 45%
- Percent of subjects with seroconversion to influenza H1N1 4 weeks after vaccination [2, 16]: 36%
- decrease in PD-1+ CD4 T cells, pooled RAD cohort compared to placebo [3]: 30.2%
- decrease in PD-1-positive CD4 T cells as compared to placebo cohort [3]: −37.1-−28.5%
- decrease in PD-1-positive CD4 T cells, pooled RAD cohort compared to placebo [3]: 32.7%
- decrease in PD-1-positive CD8 T cells as compared to placebo cohort [3]: −43.3-−38.5%
- decrease in PD-1-positive CD8 T cells, pooled RAD001 cohort compared to placebo [3]: 37.4% and 41.4%
- increase in PD-1-negative CD4 T cells as compared to placebo cohort [3]: 3.0-4.9%
- exercise and energy [4]: increases in exercise and energy
- increase above baseline in influenza geometric mean titers to 2 heterologous influenza strains relative to placebo [5]: increase in titers
- Primary endpoint of the study (HI GMT ratio >=1.2-fold relative to placebo in at least 2 of 3 strains) [6]: met the GMT primary endpoint
- RAD001-associated increase in influenza titers in subgroup analysis [6]: greater RAD001-associated increase in titers than did the ITT population
- HI GMT ratio B (week 4 post vaccination/baseline) ([7]; 0.5 mg daily, N = 50): 2.5
- HI GMT B, Baseline ([7]; 0.5 mg daily, N = 50): 44.2
- HI GMT B, Week 4 ([7]; 0.5 mg daily, N = 50): 98.4
- HI GMT ratio B (week 4 post vaccination/baseline) ([7]; 5 mg weekly, N = 49): 2.2
- HI GMT B, Baseline ([7]; 5 mg weekly, N = 49): 64.8
- HI GMT B, Week 4 ([7]; 5 mg weekly, N = 49): 117.3
- HI GMT ratio B (week 4 post vaccination/baseline) ([7]; 20 mg weekly, N = 49): 2.1
- HI GMT B, Baseline ([7]; 20 mg weekly, N = 49): 58.0
- HI GMT B, Week 4 ([7]; 20 mg weekly, N = 49): 99.2
- Percent of subjects with seroconversion to influenza B 4 weeks after vaccination [7, 11]: 27%
- Percent of subjects with seroconversion to influenza B 4 weeks after vaccination [7, 12]: 22%
- Percent of subjects with seroconversion to influenza B 4 weeks after vaccination [7, 13]: 19%
- Percent of subjects with seroconversion to influenza B 4 weeks after vaccination ([7]; Subjects with Baseline Titers <=40, 0.5 mg, * p < 0.05 vs placebo): 40* Percent
- Percent of subjects with seroconversion to influenza B 4 weeks after vaccination [7, 15]: 33%
- Percent of subjects with seroconversion to influenza B 4 weeks after vaccination [7, 16]: 28%
- Deaths during the study [8]: No deaths occurred
- Incidence of treatment-related AE: Blood cholesterol increased [8]: 2 (3.8%) n (%)
- Most common RAD001-related AE [8]: mouth ulcer
- Tolerability [8]: well tolerated
- HI GMT ratio A/H3N2 (week 4 post vaccination/baseline) ([9]; 0.5 mg daily, N = 50): 2.1
- HI GMT A/H3N2, Baseline ([9]; 0.5 mg daily, N = 50): 106.8
- HI GMT A/H3N2, Week 4 ([9]; 0.5 mg daily, N = 50): 194.4
- HI GMT ratio A/H3N2 (week 4 post vaccination/baseline) ([9]; 5 mg weekly, N = 49): 2.0
- HI GMT A/H3N2, Baseline ([9]; 5 mg weekly, N = 49): 126.04
- HI GMT A/H3N2, Week 4 ([9]; 5 mg weekly, N = 49): 223.0
- HI GMT ratio A/H3N2 (week 4 post vaccination/baseline) ([9]; 20 mg weekly, N = 49): 2.1
- HI GMT A/H3N2, Baseline ([9]; 20 mg weekly, N = 49): 137.1
- HI GMT A/H3N2, Week 4 ([9]; 20 mg weekly, N = 49): 223.0
- Percent of subjects with seroconversion to influenza H3N2 4 weeks after vaccination [9, 11]: 27%
- Percent of subjects with seroconversion to influenza H3N2 4 weeks after vaccination [9, 12]: 24%
- Percent of subjects with seroconversion to influenza H3N2 4 weeks after vaccination [9, 13]: 25%
- Percent of subjects with seroconversion to influenza H3N2 4 weeks after vaccination [9, 14]: 64%
- Percent of subjects with seroconversion to influenza H3N2 4 weeks after vaccination [9, 15]: 53%
- Percent of subjects with seroconversion to influenza H3N2 4 weeks after vaccination [9, 16]: 71%
- concentration at 24 h ([10]; NSG, lowest dose tested (0.3 mg/kg) oral daily, day 0 and day 14, read-out: RAD001 concentration in the blood 24 hours after dosing): > 10 nM
- Stability in the blood of tumor bearing mice ([10]; daily oral dosing, day 0 and day 14 PK): fairly stable
- concentration at 24 h ([10]; 0.3 mg/kg, NSG mice, daily oral dosing, read-out: Concentration of RAD001 24 hours after the final dose): > 10 nM
